Measurements published in patent US20040038950A1, “Pharmaceutical composition for treating IL-1 related diseases or disorders” (priority 2002, published 2004).

Assays:
human chondrocyte [1] = assay: Cell proliferation, [3H]thymidine assay in chondrocyte alginate bead culture; assay type: cell-based; conditions: 10-100 μM DHEA
Method: (§1) Chondrocytes were isolated from the knee joint of patient undergoing a knee replacement due to osteoarthritis. Cartilage was digested with 0.2% protease Type XIV (Sigma) for 1 hour, followed by 3-hour incubation with 0.2% collagenase Type IA (Sigma) at 37° C. Following the incubation, the undigested cartilage fragments were removed using a 70 μm Nylon sieve. Chondrocytes were washed with DPBS and maintained in monolayer culture for 7 days in Dulbecco's modified Eagle's medium (DMEM; Life Technologies Inc.) which contained 10% fetal bovine serum (FBS; Life Technologies), 100 units/ml penicillin-streptomycin (Life Technologies) and 25 μg/ml L-ascorbic acid (Sigma). All experiments were performed with primary or first passage cells. The preparation of chondrocytes in alginate beads was carried out with 4×10^6 cells per 1 ml of alginate. […]
(§2) For cell proliferation, [^3H]thymidine assay was performed on a 96-well plate (Nunc) with one alginate bead per well. […] After collecting the cells using a cell harvester (Wallac), [^3H]thymidine uptake was quantitated by measuring β emission on a β-counter (Wallac). […] The ^35SO4-labeled proteoglycan content was measured by a liquid scintillation counter (Wallac). The total cellular DNA was determined by Indole assay.

human chondrocyte [2] = assay: GAG assay (35SO4-labeled proteoglycan synthesis) in chondrocyte alginate culture; assay type: cell-based; conditions: DHEA present in chondrocyte cultures, same time period
Method: as §1, §2

MMP-1 mRNA = assay: RT-PCR of MMP-1 mRNA in chondrocytes; assay type: cell-based, human; conditions: 100 μM
Method: (§3) Chondrocytes were isolated from the knee joint of patient undergoing a knee replacement due to osteoarthritis. Cartilage was digested with 0.2% protease Type XIV (Sigma) for 1 hour, followed by 3-hour incubation with 0.2% collagenase Type IA (Sigma) at 37° C. Following the incubation, the undigested cartilage fragments were removed using a 70 μm Nylon sieve. Chondrocytes were washed with DPBS and maintained in monolayer culture for 7 days in Dulbecco's modified Eagle's medium (DMEM; Life Technologies Inc.) which contained 10% fetal bovine serum (FBS; Life Technologies), 100 units/ml penicillin-streptomycin (Life Technologies) and 25 μg/ml L-ascorbic acid (Sigma). All experiments were performed with primary or first passage cells. The preparation of chondrocytes in alginate beads was carried out with 4×10^6 cells per 1 ml of alginate. Alginate cultures were maintained for 7 days at 37° C., 5% CO2 and 95% humidity and incubated with various concentrations of DHEA (0, 10, 50 or 100 μM) for a varing period of time. DHEA was purchased from Sigma and used after dissolving either in ethanol or dimethyl sulfoxide (DMSO). After a desired incubation period, cells were harvested by solubilizing the alginate beads in citrate buffer (55 mM sodium citrate, 0.15 M NaCl, pH 7.0) for 10 min at 37° C. and by centrifugation (300 g, 5 min).
(§4) Total RNA from chondrocytes was extracted using RNeasy Mini Kit (QIAGEN). Reverse transcription from 1 μg of total RNA was conducted using First Strand cDNA Synthesis Kit (MBI Fermentas) according to manufacturer's recommendation with random hexamers. The resulting cDNA was then amplified by polymerase chain reaction using AccuPower PCR Premix (Bioneer, Korea) in a final volume of 20 μl using three thermocycler temperatures (30 sec at […], 30 sec at 60° C., and 30 sec at […]). All reactions were determined to be in the linear range of amplification with the cycle number ranging from 14 to 30. The PCR products were analyzed by separation on a 2% agarose gel followed by ethidium bromide staining. Following electrophoresis, photographs were taken and analyzed using a densitometric program (TINA; Raytest Isotopenmeβgerate, Germany). Integrated density values for the genes in question were then normalized to the glyceraldehyde-3-phosphate dehydrogenase (GAPDH) values for a semiquantitative assessment. After normalizing with respect to GAPDH, percentage increase or decrease was determined. Each experiment was repeated at least three times. […]

MMP-1 = assay: Western blot of MMP-1 in chondrocyte lysates; assay type: cell-based, human; conditions: 0, 10 or 100 μ DHEA, three days
Method: as §3, with “After a desired incubation period, cells were harvested by solubilizing the alginate beads in citrate buffer (55 mM sodium citrate, 0.15 M NaCl, pH 7.0) for 10 min at 37° C. and by centrifugation (300 g, 5 min).” left out
(§5) To investigate the effect of DHEA on the protein concentration, Western blot analysis was performed. […] Protein concentration of the supernatant was determined by Bio-Rad protein assay (Bio-Rad, USA) using bovine serum albumin (BSA) as a standard. […]

MMP-3 = assay: Western blot of MMP-3 in chondrocyte lysates; assay type: cell-based, human; conditions: 0, 10 or 100 μ DHEA, three days
Method: as §3, with “After a desired incubation period, cells were harvested by solubilizing the alginate beads in citrate buffer (55 mM sodium citrate, 0.15 M NaCl, pH 7.0) for 10 min at 37° C. and by centrifugation (300 g, 5 min).” left out
as §5

[3] = test system: (IL-1β)-induced iNOS mRNA; assay: (IL-1β)-induced iNOS gene expression in chondrocytes; assay type: cell-based, human; conditions: 10, 50, 100 μM with IL-1β, 72 hr
Method: Sixteen hours prior to a treatment, the complete culture medium was replaced with a serum-free medium. Chondrocyte alginate bead cultures were then treated with IL-1β ([…], (Calbiochem) and DHEA (0, 10, 50 or 100 μM) for 3 days.
as §4

TIMP-1 mRNA = assay: Osteoarthritic rabbit model (ACLT), intraarticular injection, RT-PCR of TIMP-1; assay type: in vivo; conditions: rabbit ACLT knee, intraarticular once a week for 5 weeks
Method: (§6) Mature New Zealand White rabbits underwent bilateral anterior cruciate ligament transection (ACLT). ACLT was performed using a medial arthrotomy method. Postoperatively the animals were permitted cage (60 cm×60 cm×40 cm) activity without immobilization. The right knees received via intraartiticular injection DHEA, DHEA-pyruvate or DHEA+HA, 4 weeks after ACLT and once a week for 5 weeks. The left knees received 0.3 ml of intraarticular injection with control solution (carrier solution). After 9 weeks from ACLT, the animas were sacrificed.
(§7) Synovium (entire tissue) around the infrapatellar fat pads and cartilage tissue from the femoral condyle and the tibial plateau were harvested. The subsequent experimental procedure was the same as described in Test Example IV.

MMP-3 expression = assay: Osteoarthritic rabbit model (ACLT), intraarticular injection, RT-PCR of MMP-3; assay type: in vivo; conditions: rabbit ACLT knee, intraarticular once a week for 5 weeks
Method: as §6, §7

## C[C@]12CC[C@H](O)CC1=CC[C@@H]1[C@@H]2CC[C@]2(C)C(=O)CC[C@@H]12 [DHEA, dehyroepiandrosterone]
Human chondrocyte [1]; after day 5
  effect on cell proliferation: insignificant
Human chondrocyte [1]; as early as day 3 of culture
  cell proliferation: slightly reduced
Human chondrocyte [2]
  rate of proteoglycan synthesis: remained unchanged
MMP-1 mRNA; 72 hours
  MMP-1 level, inhibition: 48%
MMP-1 mRNA; after 24 hr
  MMP-1 mRNA level, reduced by: 43%
MMP-1 mRNA; after 48 hr
  MMP-1 mRNA level, reduced by: 35%
MMP-1 mRNA; after 72 hr
  MMP-1 mRNA expression: markly inhibited
MMP-1
  MMP-1 protein level (Western blot): reduced with increasing DHEA concentration
MMP-3
  MMP-3 protein level (Western blot): did not change
[3]
  (IL-1β)-induced up-regulation of iNOS mRNA: suppressed
TIMP-1 mRNA
  expression of TIMP-1: increased
MMP-3 expression
  expression of MMP-3: did not change
